Consider one molecule from patent US5873359A, “Methods and devices for treating pulmonary vasoconstriction and asthma” (The General Hospital Corporation, priority 1994, dated 1999).

For data set [1], the system named is severe acute respiratory failure. The data set can be described thus: Inhaled NO in humans with severe acute respiratory failure (preliminary). The class given is in vivo, human. The conditions noted are these: approximately 20 ppm inhaled, up to one month, five humans. From the text:
It is likely that inhaled NO acts by diffusing into the vascular space adjacent to the alveoli and causing relaxation of pulmonary vascular smooth muscle, thus permitting an increase in pulmonary blood flow and gas exchange. […] By localizing delivery of NO in a gaseous form directly to the lungs, the dissolved NO can immediately exert its pharmacological effect on target vascular smooth muscle, prior to inactivation of the NO by binding to hemoglobin. At the same time, the rapid binding of NO to hemoglobin ensures that any vasodilatory action of inhaled NO is solely a local or selective effect in the blood vessels of the lung, with no concomitant vasodilation downstream in the systemic circulation.

Data set [2] relates to control lambs. In words: Inhaled NO in control lambs with no drug infusion. The conditions noted are these: 80 ppm NO, FiO2 0.6-0.7, two lambs. The class given is in vivo, Suffolk lambs. From the text:
Eight Suffolk lambs weighing 25-35 kg underwent a sterile thoracotomy in order to place a left atrial line, tracheostomy and femoral artery line under general endotracheal anesthesia with halothane/oxygen three days before study. After three days of recovery the lambs underwent sterile placement of a 7 French thermal dilution pulmonary artery monitoring catheter under local anesthesia.
Awake unanesthetized lambs were studied in order to avoid general anesthesia which can blunt hypoxic vasoconstriction. Lambs were placed in a Babraham cage and allowed to drink and eat ad lib. Two studies were performed 2 days apart on each of six lambs. After the study the lambs were sacrificed with an overdose of barbiturate and heir lungs were fixed, stained and examined by light microscopy for pathological changes.
A pulmonary vasodilator dose response curve plotting changes in PAP as a function of inhaled NO concentration during U46619 infusion was produced for eight lambs breathing a series of increasing NO/O2 mixtures of 5, 10, 20, 40, and 80 ppm NO for six minutes (FIG. 1). Each level of NO exposure was followed by six minutes of breathing the oxygen mixture without NO (FIG. 2). A second exposure to NO was examined for similar periods. Subsequently, a control period breathing the oxygen mixture was studied six minutes after ceasing U46619 infusion. At each three and six minute time period after administering or discontinuing NO during the study, we measured mean and phasic pulmonary artery pressure (PAP), left atrial pressure (LAP), systemic arterial pressure (SAP) and central venous pressure (CVP). All pressures were recorded on a Hewlett Packard multi-channel strip chart recorder with transducers zeroed to atmospheric pressure at the mid point of the thorax (e.g., see FIG. 3). Cardiac output (CO) was measured by thermal dilution as the average of two determinations injecting 5 ml of 0° C. Ringers lactate. Pulmonary vascular resistance (PVR) and systemic vascular resistance (SVR) were computed by standard formulae; PVR measured at each inhaled NO concentration is shown in FIG. 4. Appropriate statistical analyses were performed, and all data were expressed as mean ± standard error.
Two control lambs with no drug infusion breathed 80 ppm NO at an F1 O2 of 0.6-0.7. There was no change of mean PAP, SAP, CO or SVR in these lambs.

Data set [3] concerns PPHN. In words: NO inhalation in two more infants with PPHN. The class given is in vivo, human. From the text: Subsequent subjects. Two more infants with PPHN have been treated by NO inhalation.
In data set [4] the test system is non-constricted human lung. In words: 40 ppm NO in healthy volunteers breathing air (non-constricted lung). The class given is in vivo. As for the experimental part:
The effects of breathing 40 ppm NO were studied in five awake, healthy human volunteer subjects inhaling various gas mixtures for 10 min periods, with measurements starting at 6 min.

The conditions of data set [5]: dilute aqueous solution exposed to oxygen; cited from earlier work.
[6] abbreviates: air (21% O2) + 40 ppm NO, n = 5, X ± S.D.

Regarding `[N]=O` [NO, nitric oxide], in data set [1], the “QVA /QT (right-to-left shunt)” value was “reduces both pulmonary arterial pressure and QVA /QT”; the blood oxygen levels entry is “marked increase of the patients' blood oxygen levels”; the pulmonary arterial pressure entry is “reduces both pulmonary arterial pressure and QVA /QT”. In data set [2], the CO result is reported as “no change”, the SAP result is given as “no change”, the SVR result was “no change” and the “mean PAP” value is “no change”. In data set [3] (20-80 ppm NO), the preductal oxygenation entry is “increases in preductal oxygenation” and the response result is reported as “excellent response”. Further, in data set [3] (20-80 ppm NO, two infants), the survival entry is listed as “both survived longterm”. The “need for ECMO” value in data set [3] (one of the infants, NO inhalation alone) was “ECMO was altogether avoided”. For the same molecule, the “pulmonary or systemic vasodilatory effect” value in data set [4] (40 ppm NO, normal (21% v/v) O2) is on record as “no pulmonary or systemic vasodilatory effect”. For the same molecule, the PVR in data set [4] (air (21% O2) + 40 ppm NO, n = 5) is listed as 0.61 mmHg · min/l. For the same molecule, in data set [4] (setting [6]), the CO turned out to be 6.40 ± 0.88 L/min, the CVP was determined as 6.3 ± 1.7 mmHG, the MAP is on record as 88.0 ± 3.7 mmHg and the PAP amounted to 14.0 ± 1.8 mmHg. Also, in data set [4] (setting [6]), the PCWP is listed as 10.1 ± 2.5 mmHg, the PaCO2 is given as 38 ± 5 mmHg, the PaO2 turned out to be 94.7 ± 16.3 mmHg and the SaO2 stood at 96.0 ± 1.0%. Further, the half life result in data set [5] was “less than 10 seconds”.
